Patent US9481648B2, “Kinase inhibitors” (Respivert Limited, priority 2013, dated 2016)
Like-named read-outs stand apart in the source and are kept apart here.

Columns and labels:
[1] = target: c-Src (Homo sapiens (Human), UniProt P12931); test: c-Src enzyme inhibition (FRET, Z-LYTE); assay type: biochemical
Procedure, shortened: (§1)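 Syk or c-Src enzyme (3000 or 2000 ng/mL solutions) was preincubated 2 h at RT with compound solutions at 1, 0.1, 0.01 or 0.001 µg/mL. Z-LYTE FRET peptide (8 µM solution) and ATP (800 µM solution for c-Src, 60 µM for Syk) were then added for 1 h, followed by protease development for 1 h. Phosphorylation was read as the coumarin/fluorescein emission ratio.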

[2] = target: CYP3A4 (Homo sapiens (Human), UniProt P08684); test: CYP3A4 inhibition study; assay type: in vitro ADME; details: for inhibition at 15 µM / inhibition at 5 μM: human; for inhibition at 15 µM: read-out: 15 μM % Inh; for inhibition at 5 μM: read-out: % Inh (inhibition at 5 μM reported instead)
CYP3A4, sequence (P08684 whole entry): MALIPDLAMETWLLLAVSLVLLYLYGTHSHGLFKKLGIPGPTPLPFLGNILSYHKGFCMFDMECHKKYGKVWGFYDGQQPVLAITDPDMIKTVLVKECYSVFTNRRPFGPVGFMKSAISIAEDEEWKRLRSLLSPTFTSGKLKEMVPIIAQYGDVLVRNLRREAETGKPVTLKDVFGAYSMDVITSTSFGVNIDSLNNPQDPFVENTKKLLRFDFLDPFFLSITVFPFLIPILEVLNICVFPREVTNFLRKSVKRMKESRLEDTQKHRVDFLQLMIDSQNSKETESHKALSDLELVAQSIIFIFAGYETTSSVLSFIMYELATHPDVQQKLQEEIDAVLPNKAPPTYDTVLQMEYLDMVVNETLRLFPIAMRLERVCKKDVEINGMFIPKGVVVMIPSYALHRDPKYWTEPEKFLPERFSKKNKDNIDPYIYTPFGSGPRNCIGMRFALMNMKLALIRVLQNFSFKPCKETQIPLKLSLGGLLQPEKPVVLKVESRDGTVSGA
Experimental: (§2) Assessment of certain in vitro ADME (absorption, distribution, metabolism, and excretion) parameters for certain compounds of the invention was conducted by BioFocus (Saffron Walden, UK).

[3] = target: B-Raf (Homo sapiens (Human), UniProt P15056); test: KINOMEscan binding of kinase to its standard ligand
B-Raf, sequence (P15056 whole entry): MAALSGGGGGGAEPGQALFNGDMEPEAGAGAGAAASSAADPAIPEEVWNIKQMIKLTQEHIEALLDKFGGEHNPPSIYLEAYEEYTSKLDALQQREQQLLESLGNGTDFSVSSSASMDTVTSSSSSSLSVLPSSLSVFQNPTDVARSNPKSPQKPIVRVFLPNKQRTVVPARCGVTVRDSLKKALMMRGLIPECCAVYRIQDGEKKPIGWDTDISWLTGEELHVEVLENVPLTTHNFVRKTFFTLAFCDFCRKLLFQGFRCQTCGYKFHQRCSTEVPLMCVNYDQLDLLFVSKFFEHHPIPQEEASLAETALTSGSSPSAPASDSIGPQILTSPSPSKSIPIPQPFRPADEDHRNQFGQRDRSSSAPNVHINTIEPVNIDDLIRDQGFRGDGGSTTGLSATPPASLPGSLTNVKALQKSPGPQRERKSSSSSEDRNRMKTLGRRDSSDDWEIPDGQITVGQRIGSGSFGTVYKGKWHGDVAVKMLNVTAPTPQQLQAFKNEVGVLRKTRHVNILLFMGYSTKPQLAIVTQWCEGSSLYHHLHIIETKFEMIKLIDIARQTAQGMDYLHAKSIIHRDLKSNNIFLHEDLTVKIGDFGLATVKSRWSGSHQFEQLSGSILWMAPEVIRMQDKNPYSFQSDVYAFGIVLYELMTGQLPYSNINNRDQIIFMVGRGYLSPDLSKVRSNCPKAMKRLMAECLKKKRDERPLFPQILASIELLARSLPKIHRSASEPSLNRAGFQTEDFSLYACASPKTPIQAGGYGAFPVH
Experimental: (§3) Kinase enzyme binding activities of compounds disclosed herein may be determined using a proprietary assay which measures active site-directed competition binding to an immobilized ligand (Fabian, M. A. et al., Nature Biotechnol., 2005, 23:329-336). These assays may be conducted by DiscoverX (formerly Ambit; San Diego, Calif.). The percentage inhibition produced by incubation with a test compound may be calculated relative to the non-inhibited control.

[4] = target: B-Raf (V600E) (Homo sapiens (Human), UniProt P15056, V600E); test: as above
B-Raf (V600E), sequence (P15056 whole entry V600E): as the sequence (P15056 whole entry) above, with V600E counted along it
Experimental: as §3

[5] = Human hepatocyte stability test; assay type: in vitro ADME; details: human hepatocytes; for hepatocyte CLint: read-out: Mean intrinsic clearance
Experimental: as §2

[6] = Plasma pharmacokinetics in rats, single intravenous or oral administration; assay type: in vivo, rat (male Wistar); details: for C0: intravenous 0.25 mg/kg in 5% DMSO-7.5% Solutol HS15-87.5% normal saline; for Vd: read-out: Vss; for Fpo: oral 5 mg/kg, vehicle C (Example 4) or B
Experimental: Studies were conducted by Sai Life Sciences (Hinjewadi, Pune, India) to investigate the plasma pharmacokinetics and total colon tissue distribution of compounds of the invention. In particular, pharmacokinetic studies were carried out in: • male C57BL/6 mice, following a single oral administration; and • male Wistar rats following a single intravenous or oral administration.

[7] = target: Syk (Homo sapiens (Human), UniProt P43405); test: Syk enzyme inhibition (FRET, Z-LYTE); assay type: biochemical
Procedure, shortened: as §1

[8] = target: human ether a go-go (hERG) channel (Homo sapiens (Human), UniProt Q12809); test: hERG inhibition (IonWorks patch clamp electrophysiology); assay type: cell-based; details: IonWorks patch clamp
human ether a go-go (hERG) channel, sequence (Q12809 whole entry): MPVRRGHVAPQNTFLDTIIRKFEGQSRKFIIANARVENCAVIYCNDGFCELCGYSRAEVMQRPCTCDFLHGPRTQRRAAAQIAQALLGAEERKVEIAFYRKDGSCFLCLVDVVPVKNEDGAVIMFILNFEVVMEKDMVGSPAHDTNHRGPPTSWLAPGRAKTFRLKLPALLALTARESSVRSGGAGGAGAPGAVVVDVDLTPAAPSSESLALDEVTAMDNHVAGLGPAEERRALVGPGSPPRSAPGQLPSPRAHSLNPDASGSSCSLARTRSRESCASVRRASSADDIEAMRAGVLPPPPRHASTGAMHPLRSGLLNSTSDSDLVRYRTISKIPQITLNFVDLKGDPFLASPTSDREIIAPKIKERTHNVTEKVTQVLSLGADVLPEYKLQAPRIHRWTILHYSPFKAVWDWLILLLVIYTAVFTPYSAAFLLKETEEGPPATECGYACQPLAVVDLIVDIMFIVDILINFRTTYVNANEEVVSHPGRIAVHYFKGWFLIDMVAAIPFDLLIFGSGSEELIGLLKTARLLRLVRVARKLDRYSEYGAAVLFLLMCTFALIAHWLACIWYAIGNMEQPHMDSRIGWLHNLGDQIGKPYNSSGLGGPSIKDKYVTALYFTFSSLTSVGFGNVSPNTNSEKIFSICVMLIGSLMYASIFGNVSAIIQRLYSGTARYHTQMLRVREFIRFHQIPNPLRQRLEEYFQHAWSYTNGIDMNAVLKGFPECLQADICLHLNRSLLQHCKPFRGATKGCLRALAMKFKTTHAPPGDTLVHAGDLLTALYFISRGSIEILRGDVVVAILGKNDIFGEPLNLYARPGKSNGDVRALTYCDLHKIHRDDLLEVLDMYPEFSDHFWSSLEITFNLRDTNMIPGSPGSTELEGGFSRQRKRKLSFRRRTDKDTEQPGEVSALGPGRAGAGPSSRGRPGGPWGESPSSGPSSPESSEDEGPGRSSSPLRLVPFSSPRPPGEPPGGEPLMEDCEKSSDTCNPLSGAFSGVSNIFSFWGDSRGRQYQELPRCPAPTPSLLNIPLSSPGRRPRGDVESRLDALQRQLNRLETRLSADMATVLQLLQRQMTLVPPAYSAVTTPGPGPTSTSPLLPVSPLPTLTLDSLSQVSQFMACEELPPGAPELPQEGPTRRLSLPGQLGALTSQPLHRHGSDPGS
Experimental: (§4) Compounds of the invention were tested for inhibition of the human ether a go-go (hERG) channel using IonWorks™ patch clamp electrophysiology at Essen Bioscience (Welwyn Garden City, England).

[9] = target: hERG channel (Homo sapiens (Human), UniProt Q12809); test: as above; assay type: cell-based; details: human, 3 μM
hERG channel, sequence (Q12809 whole entry): as above
Experimental: as §4

[10] = tested on: adoptive transfer (CD45RBhigh cells) colitis in SCID mice; test: Adoptive transfer in mice (in vivo v); set-up: species or system mouse; details: for % Inhibition (of the induction window between naïve and vehicle animals): colon weight:length
Experimental: On Study day 0, female Balb/C mice are terminated and spleens obtained for CD45RB^high cell isolation (Using SCID IBD cell Separation protocol). Approximately 4×10^5 cells/mL CD45RB^high cells are then injected intraperitoneally (100 μL/mouse) into female SCID animals. On study day 14, mice are weighed and randomized into treatment groups based on body weight. On Day 14, compounds are administered BID, via oral gavage, in a peanut oil vehicle at the dose levels outlined below in Tables 6a and 6b and a dose volume of 5 mL/kg. Treatment continues until study day 42, at which point the animals are necropsied 4 hours after the morning administration. The colon length and weight are recorded and used as a secondary endpoint in the study as a measurement of colon oedema. The colon is then divided into six cross-sections, four of which are used for histopathology scoring (primary endpoint) and two are homogenised for cytokine analysis. Data shown is the % inhibition of the induction window between naïve animals and vehicle animals, where higher inhibition implies closer to the non-diseased, naïve, phenotype.

[11] = tested on: intestinal mucosa biopsies from the inflamed regions of the colon of ulcerative colitis (IBD) patients; test: Human biopsy assay (assay l); assay type: cell-based; details: 1 μg/mL; for cytokine (IL-1β, IL-6 and IL-8) release compared to the DMSO control: 24 hours, biopsies from ulcerative colitis patients
Experimental: Intestinal mucosa biopsies are obtained from the inflamed regions of the colons of IBD patients. The biopsy material is cut into small pieces (2-3 mm) and placed on steel grids in an organ culture chamber at 37° C. in a 5% CO2/95% O2 atmosphere in serum-free media. DMSO control or test compounds at the desired concentration are added to the tissue and incubated for 24 hr in the organ culture chamber. The supernatant is harvested for determination of IL-6, IL-8, IL-1β and TNFα levels by R&D ELISA.

[12] = target: CYP2C9 (Homo sapiens (Human), UniProt P11712); test: CYP2C9 inhibition study; assay type: in vitro ADME; details: for inhibition at 15 µM: human, read-out: 15 μM % Inh
CYP2C9, sequence (P11712 whole entry): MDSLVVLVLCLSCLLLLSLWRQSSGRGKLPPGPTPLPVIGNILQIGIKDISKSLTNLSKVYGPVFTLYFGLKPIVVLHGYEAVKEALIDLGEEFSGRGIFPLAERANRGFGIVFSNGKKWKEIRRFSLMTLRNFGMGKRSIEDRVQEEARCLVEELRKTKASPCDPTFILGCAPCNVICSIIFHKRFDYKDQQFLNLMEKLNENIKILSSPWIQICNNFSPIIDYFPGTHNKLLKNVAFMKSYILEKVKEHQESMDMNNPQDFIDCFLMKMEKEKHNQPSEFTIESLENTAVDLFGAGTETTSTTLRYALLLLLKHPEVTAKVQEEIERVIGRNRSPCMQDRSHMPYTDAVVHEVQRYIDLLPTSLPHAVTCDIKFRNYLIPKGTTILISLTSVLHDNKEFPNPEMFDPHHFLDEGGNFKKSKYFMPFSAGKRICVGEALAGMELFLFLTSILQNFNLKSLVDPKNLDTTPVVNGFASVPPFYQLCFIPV
Experimental: as §2

[13] = male, Wistar, rat, plasma, rats, intravenous 0.25 mg/kg
[14] = male, Wistar, rat, plasma, rats
[15] = male, Wistar, rat, plasma, po, 5 mg/kg
[16] = 24 hr, relative to DMSO control = 100%
[17] = 1 mg/kg, adoptive transfer mouse model
[18] = male, Wistar, rat, plasma, po, 5 mg/kg, read-out: Median plasma concentration

c-Src, sequence (P12931 whole entry, looked up): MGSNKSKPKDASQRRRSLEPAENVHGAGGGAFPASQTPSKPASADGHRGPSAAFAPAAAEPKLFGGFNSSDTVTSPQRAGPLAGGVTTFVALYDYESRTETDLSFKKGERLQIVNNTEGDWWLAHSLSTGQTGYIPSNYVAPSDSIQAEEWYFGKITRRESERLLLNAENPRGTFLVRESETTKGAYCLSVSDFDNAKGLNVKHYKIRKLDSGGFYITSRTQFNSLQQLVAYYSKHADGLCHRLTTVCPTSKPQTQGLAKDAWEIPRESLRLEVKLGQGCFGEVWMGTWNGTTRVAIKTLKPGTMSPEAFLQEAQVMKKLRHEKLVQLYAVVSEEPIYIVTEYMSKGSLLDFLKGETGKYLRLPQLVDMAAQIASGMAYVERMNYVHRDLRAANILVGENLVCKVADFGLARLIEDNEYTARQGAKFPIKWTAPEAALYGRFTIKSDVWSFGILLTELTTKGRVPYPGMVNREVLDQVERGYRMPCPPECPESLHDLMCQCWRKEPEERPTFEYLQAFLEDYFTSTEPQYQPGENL

COCCOCCOCCNC(=O)c1cc(Nc2cc(Oc3ccc(NC(=O)Nc4cc(C(C)(C)C)cc(NS(C)(=O)=O)c4OC)c4ccccc34)ccn2)cc(OC)c1 [Example 3, 3-((4-((4-(3-(5-(tert-Butyl)-2-methoxy-3-(methylsulfonamido)phenyl)ureido)naphthalen-1-yl)oxy)pyridin-2-yl)amino)-5-methoxy-N-(2-(2-(2-methoxyethoxy)ethoxy)ethyl)benzamide]
IC50 [1]: 20 nM | IC50 ([2]; CYP3A4, 0 min preincubation): > 15000 nM | IC50 ([2]; CYP3A4, 30 min preincubation): > 15000 nM | inhibition at 15 µM ([2]; CYP3A4, 0 min preincubation): 22% | inhibition at 15 µM ([2]; CYP3A4, 30 min preincubation): 51% | effect on the binding of the kinase B-Raf to its standard ligand [3]: did not have any significant effect | effect on the binding of the kinase B-Raf (V600E) to its standard ligand [4]: did not have any significant effect | half-life [5]: 36 min | hepatocyte CLint [5]: 39 µL/min/1e6 cells | AUC(0-inf) [6, 13]: 821 ng·h/mL | AUC(0-t) [6, 13]: 820 ng·h/mL | half-life [6, 13]: 12 min | C0 [6, 14]: 4380 ng/mL | Vd [6, 13]: 0.1 L/kg | CI ([6]; rats, intravenous 0.25 mg/kg): 5.1 mL/min/kg | Fpo ([6]; rats): 0.0% | IC50 [7]: 692 nM | IC50 [8]: > 3000 nM | inhibition at 3 µM [9]: -2 ± 2% | activity in T cell driven in vivo model of colonic inflammation (relative ratios of colon weight to length) ([10]; adoptive transfer mouse model): significant activity | Colon weight:length ([10]; adoptive transfer mouse model, 3 mg/kg BID oral): 0.039 ± 0.003

COCCOCCOCCOc1cc(Nc2nccc(Oc3ccc(NC(=O)Nc4cc(C(C)(C)C)cc(NS(C)(=O)=O)c4OC)c4ccccc34)n2)cc(OC)c1 [Example 4, N-(5-(tert-Butyl)-2-methoxy-3-(3-(4-((2-((3-methoxy-5-(2-(2-(2-methoxyethoxy)ethoxy)-ethoxy)phenyl)amino)pyrimidin-4-yl)oxy)naphthalen-1-yl)ureido)phenyl)methanesulfonamide]
IC50 [1]: 14 nM | IC50 ([2]; CYP3A4, 0 min preincubation): > 5000 nM | IC50 ([2]; CYP3A4, 30 min preincubation): 2700 nM | inhibition at 5 μM ([2]; CYP3A4, 0 min preincubation): 9% | inhibition at 5 μM ([2]; CYP3A4, 30 min preincubation): 58% | effect on the binding of the kinase B-Raf to its standard ligand [3]: did not have any significant effect | effect on the binding of the kinase B-Raf (V600E) to its standard ligand [4]: did not have any significant effect | half-life [5]: 48 min | hepatocyte CLint [5]: 29 µL/min/1e6 cells | AUC(0-inf) [6, 15]: 40.8 ng·h/mL | AUC(0-t) [6, 15]: 27 ng·h/mL | Cmax [6, 15]: 15.5 ng/mL | Tmax [6, 15]: 30 min | AUC(0-inf) [6, 13]: 563 ng·h/mL | AUC(0-t) [6, 13]: 558 ng·h/mL | half-life [6, 13]: 48 min | C0 [6, 14]: 3040 ng/mL | Vd [6, 13]: 0.2 L/kg | CI ([6]; rats, intravenous 0.25 mg/kg): 7.9 mL/min/kg | Fpo ([6]; rats): 0.2% | cytokine (IL-1β, IL-6 and IL-8) release compared to the DMSO control [11]: significantly inhibited | Cytokine release from biopsies of UC patients: IL-1β release [11, 16]: 17 ± 21% | Cytokine release from biopsies of UC patients: IL-6 release [11, 16]: 5 ± 1% | Cytokine release from biopsies of UC patients: IL-8 release [11, 16]: 2 ± 1% | IC50 [7]: 86 nM | IC50 [8]: > 3000 nM | inhibition at 3 µM [9]: -4 ± 2% | IC50 ([12]; CYP2C9, 0 min preincubation): > 15000 nM | IC50 ([12]; CYP2C9, 30 min preincubation): > 15000 nM | inhibition at 15 µM ([12]; CYP2C9, 0 min preincubation): 24% | inhibition at 15 µM ([12]; CYP2C9, 30 min preincubation): 41% | Colon weight:length ([10]; 0.3 mg/kg BID oral gavage, adoptive transfer mouse model): 0.030 ± 0.008 | % Inhibition (of the induction window between naïve and vehicle animals) ([10]; 0.3 mg/kg BID oral gavage): 62% | Colon weight:length ([10]; 1 mg/kg BID oral gavage, adoptive transfer mouse model): 0.020 ± 0.002 | % Inhibition (of the induction window between naïve and vehicle animals) ([10]; 1 mg/kg BID oral gavage): 110% | IFNγ level in colon tissue [10, 17]: 2.8 ± 0.8 pg/mL | IL-8 level in colon tissue [10, 17]: 53.3 ± 23.0 pg/mL | levels of pro-inflammatory cytokines in samples of colon tissue ([10]; adoptive transfer mouse model): significantly reduced

C#Cc1cc(Nc2nccc(Oc3ccc(NC(=O)Nc4cc(C(C)(C)C)cc(NS(C)(=O)=O)c4OC)c4ccccc34)n2)cc(C(=O)NCCOCCOCCOC)c1 [Example 16]
15 μM % Inh ([2]; CYP3A4, 0 min preincubation): 31% | 15 μM % Inh ([2]; CYP3A4, 30 min preincubation): 54% | effect on the binding of the kinase B-Raf to its standard ligand [3]: did not have any significant effect | effect on the binding of the kinase B-Raf (V600E) to its standard ligand [4]: did not have any significant effect | Fpo ([6]; rats): 0.0% | cytokine (IL-1β, IL-6 and IL-8) release compared to the DMSO control [11]: significantly inhibited | activity in T cell driven in vivo model of colonic inflammation (relative ratios of colon weight to length) ([10]; adoptive transfer mouse model): significant activity | levels of pro-inflammatory cytokines in samples of colon tissue ([10]; adoptive transfer mouse model): significantly reduced

COc1c(NC(=O)Nc2ccc(Oc3ccnc(Nc4ccccc4)c3)c3ccccc23)cc(C(C)(C)C)cc1C(=O)NC1COC1 [Example 75, 5-(tert-Butyl)-2-methoxy-N-(oxetan-3-yl)-3-(3-(4-((2-(phenylamino)pyridin-4-yl)oxy)-naphthalen-1-yl)ureido)benzamide]
IC50 [1]: 97 nM | IC50 ([2]; CYP3A4, 0 min preincubation): > 15000 nM | IC50 ([2]; CYP3A4, 30 min preincubation): > 15000 nM | inhibition at 15 µM ([2]; CYP3A4, 0 min preincubation): 3% | inhibition at 15 µM ([2]; CYP3A4, 30 min preincubation): 42% | effect on the binding of the kinase B-Raf to its standard ligand [3]: did not have any significant effect | effect on the binding of the kinase B-Raf (V600E) to its standard ligand [4]: did not have any significant effect | half-life [5]: > 200 min | hepatocyte CLint [5]: < 7 µL/min/1e6 cells | AUC(0-t) [6, 15]: 26.6 ng·h/mL | Cmax [6, 15]: 3.8 ng/mL | Tmax [6, 15]: 318 min | concentration at 0.25 h [6, 18]: 0 ng/mL | concentration at 0.5 h [6, 18]: 0 ng/mL | concentration at 1 h [6, 18]: 0 ng/mL | concentration at 2 h [6, 18]: 1.2 ng/mL | concentration at 4 h [6, 18]: 3.1 ng/mL | concentration at 6 h [6, 18]: 2 ng/mL | concentration at 8 h [6, 18]: 3.2 ng/mL | concentration at 12 h [6, 18]: 2.3 ng/mL | concentration at 24 h [6, 18]: 0 ng/mL | AUC(0-inf) [6, 13]: 952 ng·h/mL | AUC(0-t) [6, 13]: 948 ng·h/mL | half-life [6, 13]: 72 min | C0 [6, 14]: 4000 ng/mL | Vd [6, 13]: 0.1 L/kg | CI ([6]; rats, intravenous 0.25 mg/kg): 4.4 mL/min/kg | Fpo ([6]; rats): 0.1% | IC50 [7]: 214 nM | IC50 [8]: > 3000 nM | inhibition at 3 µM [9]: 0% | IC50 ([12]; CYP2C9, 0 min preincubation): > 15000 nM | IC50 ([12]; CYP2C9, 30 min preincubation): > 15000 nM | inhibition at 15 µM ([12]; CYP2C9, 0 min preincubation): 20% | inhibition at 15 µM ([12]; CYP2C9, 30 min preincubation): 36%
